{
  "source": "paper PMC7269513",
  "about": "(Antimicrobial Agents and Chemotherapy, 2020)",
  "key": {"[1]": {"target": "CTX-M-14 (Escherichia coli, UniProt Q9L5C7)", "experiment": "IC50 of beta-lactamase inhibition (nitrocefin hydrolysis)", "type": "biochemical", "details": "read-out: IC50 (nM) of drug"}, "[2]": {"target": "P99 (Enterobacter cloacae, UniProt P05364)", "experiment": "IC50 of beta-lactamase inhibition (nitrocefin hydrolysis)", "type": "biochemical", "details": "IC50 (nM) of drug", "procedure": "(§1) […]; Initial rates of reaction were calculated and exported to Prism software to calculate IC50 values using the “dose-response—inhibition, variable slope (four parameters)” equation. Ki values were calculated by the method of Waley ([31]). This method was previously used to calculate Ki values for boronic fast-on–fast-off BLIs."}, "[3]": {"target": "CTX-M-15 (Escherichia coli, UniProt Q9EXV5)", "experiment": "IC50 of beta-lactamase inhibition (nitrocefin hydrolysis)", "type": "biochemical", "details": "read-out: IC50 (nM) of drug", "procedure": "as §1"}, "[4]": {"target": "T1, SHV-12 (Klebsiella pneumoniae, UniProt P0AD64, E235K/G234S/L31Q)", "experiment": "IC50 of beta-lactamase inhibition (nitrocefin hydrolysis)", "type": "biochemical", "details": "read-out: IC50 (nM) of drug"}, "[5]": {"target": "T2, VIM-1 (Pseudomonas aeruginosa, UniProt A0A0F7KYQ8)", "experiment": "IC50 of beta-lactamase inhibition (nitrocefin hydrolysis)", "type": "biochemical", "details": "IC50 (nM) of drug"}, "[6]": {"target": "T3, NDM-1 (Klebsiella pneumoniae, UniProt C7C422)", "experiment": "biochemical"}, "[7]": {"target": "T4, IMP-1 (Serratia marcescens, UniProt P52699)", "experiment": "IC50 of beta-lactamase inhibition (imipenem hydrolysis)", "type": "biochemical"}, "[8]": {"target": "T2, VIM-1"}, "[9]": {"target": "OXA-23 (Acinetobacter baumannii, UniProt Q9L4P2)"}, "[10]": {"target": "OXA-24 (Acinetobacter baumannii, UniProt Q8RLA6)"}, "[11]": {"target": "KPC-2 (Klebsiella pneumoniae, UniProt Q9F663)", "type": "biochemical"}, "[12]": {"target": "T3, NDM-1", "type": "biochemical"}, "[13]": {"target": "OXA-48 (Klebsiella pneumoniae, UniProt Q6XEC0)"}, "[14]": {"target": "OXA-58 (Acinetobacter baumannii, UniProt Q2TR58)"}, "[15]": {"target": "T4, IMP-1"}, "[16]": {"target": "IMP-26 (Pseudomonas aeruginosa, UniProt D0V558)", "type": "biochemical", "details": "hydrolysis by IMP-26"}, "[17]": {"target": "SME-2 (Serratia marcescens, UniProt P52682, V207Q)", "type": "biochemical"}, "[18]": {"target": "FRI-1 (Enterobacter cloacae, UniProt A0A0M5L4T8)", "experiment": "Km and kcat of nitrocefin or imipenem hydrolysis", "type": "biochemical", "details": "hydrolysis by FRI-1"}, "[19]": {"target": "TEM-10 (Escherichia coli, UniProt P62593, E237K/R162S)", "details": "hydrolysis by TEM-10"}, "[20]": {"target": "T1, SHV-12", "type": "biochemical"}, "[21]": {"target": "TEM-43 (Escherichia coli, UniProt P62593, E102K/M180T/R162H, species not given)", "type": "biochemical", "details": "hydrolysis by TEM-43"}, "[22]": {"target": "KPC-3 (Klebsiella pneumoniae, UniProt Q9F663, H272Y)", "type": "biochemical", "details": "hydrolysis by KPC-3"}, "[23]": {"target": "BKC-1 (Klebsiella pneumoniae, UniProt A0A0F6QEY8)", "experiment": "Km and kcat of nitrocefin or imipenem hydrolysis", "type": "biochemical", "details": "hydrolysis by BKC-1"}},
  "note": "Read-outs that look alike come from different tables or passages of the source.",
  "data": [
    {"smiles": "NC(=O)[C@@H]1CC[C@@H]2CN1C(=O)N2OS(=O)(=O)O", "note": "[Avibactam, avibactam]", "values": [
      {"measurement": "IC50", "setting": "[1]", "value": "1.4 ± 0.4", "unit": "nM"},
      {"measurement": "IC50", "setting": "[2]", "value": "26 ± 7", "unit": "nM"},
      {"measurement": "IC50", "setting": "[3]", "value": "0.56 ± 0.25", "unit": "nM"},
      {"measurement": "IC50", "setting": "[4]", "value": "0.61 ± 0.19", "unit": "nM"},
      {"measurement": "IC50", "setting": "[5]", "value": "> 160000", "unit": "nM"},
      {"measurement": "IC50", "setting": "[6]", "value": "> 160000", "unit": "nM"},
      {"measurement": "IC50", "setting": "[7]", "value": "> 160000", "unit": "nM"}
    ]},
    {"smiles": "C[C@@H](O)[C@H]1C(=O)N2C(C(=O)O)=C(SCCN=CN)C[C@H]12", "note": "[Imipenem, imipenem]", "values": [
      {"measurement": "Km", "setting": "[8]", "value": 13, "unit": "µM"},
      {"measurement": "kcat", "setting": "[8]", "value": 15, "unit": "s⁻¹"},
      {"measurement": "Km", "setting": "[9]", "value": 6.6, "unit": "µM"},
      {"measurement": "kcat", "setting": "[9]", "value": 0.7, "unit": "s⁻¹"},
      {"measurement": "Km", "setting": "[10]", "value": 1.2, "unit": "µM"},
      {"measurement": "kcat", "setting": "[10]", "value": 1.9, "unit": "s⁻¹"},
      {"measurement": "Km", "setting": "[11]", "value": 70, "unit": "µM"},
      {"measurement": "kcat", "setting": "[11]", "value": 39, "unit": "s⁻¹"},
      {"measurement": "Km", "setting": "[12]", "value": 206, "unit": "µM"},
      {"measurement": "kcat", "setting": "[12]", "value": 96, "unit": "s⁻¹"},
      {"measurement": "Km", "setting": "[13]", "value": 1.5, "unit": "µM"},
      {"measurement": "kcat", "setting": "[13]", "value": 1.7, "unit": "s⁻¹"},
      {"measurement": "Km", "setting": "[14]", "value": 1.3, "unit": "µM"},
      {"measurement": "kcat", "setting": "[14]", "value": 0.66, "unit": "s⁻¹"},
      {"measurement": "Km", "setting": "[15]", "value": 66, "unit": "µM"},
      {"measurement": "kcat", "setting": "[16]", "value": 35, "unit": "s⁻¹"}
    ]},
    {"smiles": "O=C(Cc1cccs1)N[C@@H]1C(=O)N2C(C(=O)O)=C(/C=C/c3ccc([N+](=O)[O-])cc3[N+](=O)[O-])CS[C@H]12", "note": "[Nitrocefin, nitrocefin]", "values": [
      {"measurement": "Km", "setting": "[17]", "value": 59, "unit": "µM"},
      {"measurement": "kcat", "setting": "[17]; hydrolysis by SME-2", "value": 352, "unit": "s⁻¹"},
      {"measurement": "kcat", "setting": "[18]", "value": 176, "unit": "s⁻¹"},
      {"measurement": "Km", "setting": "[11]", "value": 49, "unit": "µM"},
      {"measurement": "kcat", "setting": "[11]; hydrolysis by KPC-2", "value": 206, "unit": "s⁻¹"},
      {"measurement": "Km", "setting": "[12]", "value": 1.6, "unit": "µM"},
      {"measurement": "kcat", "setting": "[12]; hydrolysis by NDM-1", "value": 27, "unit": "s⁻¹"},
      {"measurement": "kcat", "setting": "[19]", "value": 18, "unit": "s⁻¹"},
      {"measurement": "Km", "setting": "[20]", "value": 5.5, "unit": "µM"},
      {"measurement": "kcat", "setting": "[20]; hydrolysis by SHV-12", "value": 73, "unit": "s⁻¹"},
      {"measurement": "kcat", "setting": "[21]", "value": 175, "unit": "s⁻¹"},
      {"measurement": "kcat", "setting": "[16]", "value": 325, "unit": "s⁻¹"},
      {"measurement": "kcat", "setting": "[22]", "value": 182, "unit": "s⁻¹"},
      {"measurement": "kcat", "setting": "[23]", "value": 721, "unit": "s⁻¹"}
    ]}
  ]
}
